Test [1] can be described thus: NIH3T3 cell viability loss – ATP luminescence, mouse fibroblasts, counter-screen, dose response (AID 2010).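 Further: cells exposed to compound for about 90 hours before reading.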 In kind it is functional, cell-based.
Test [2] concerns the target T1, Tyrosine-protein phosphatase non-receptor type 22 (Homo sapiens, UniProt Q9Y2R2).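 Further: confirmatory dose-response retesting of primary uHTS hits against LYP; potency is for inhibition of phosphatase activity.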
T1 sequence (Q9Y2R2 whole entry): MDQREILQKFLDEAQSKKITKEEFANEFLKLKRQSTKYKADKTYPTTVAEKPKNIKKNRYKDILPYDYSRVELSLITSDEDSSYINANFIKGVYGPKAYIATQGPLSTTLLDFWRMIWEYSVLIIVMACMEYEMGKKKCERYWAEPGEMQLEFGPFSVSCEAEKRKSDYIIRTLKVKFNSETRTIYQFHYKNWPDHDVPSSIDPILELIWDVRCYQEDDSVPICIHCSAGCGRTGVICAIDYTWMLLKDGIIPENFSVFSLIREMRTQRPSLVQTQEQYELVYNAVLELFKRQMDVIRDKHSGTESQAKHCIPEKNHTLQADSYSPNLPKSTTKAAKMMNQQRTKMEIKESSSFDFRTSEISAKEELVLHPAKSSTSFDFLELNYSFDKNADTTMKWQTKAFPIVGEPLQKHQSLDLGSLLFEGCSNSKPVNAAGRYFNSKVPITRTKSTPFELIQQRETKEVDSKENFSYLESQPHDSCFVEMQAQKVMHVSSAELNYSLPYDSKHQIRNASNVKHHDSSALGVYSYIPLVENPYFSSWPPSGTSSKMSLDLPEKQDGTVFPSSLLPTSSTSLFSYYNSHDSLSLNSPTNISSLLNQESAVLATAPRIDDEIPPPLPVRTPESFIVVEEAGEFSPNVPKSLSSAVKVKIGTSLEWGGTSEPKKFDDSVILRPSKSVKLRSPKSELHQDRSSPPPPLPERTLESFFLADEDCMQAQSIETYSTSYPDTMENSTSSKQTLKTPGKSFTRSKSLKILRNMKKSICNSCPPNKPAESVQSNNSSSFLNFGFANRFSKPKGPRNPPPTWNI
Format: functional.

The target in test [3] is Dual specificity protein phosphatase 3 (Homo sapiens, UniProt P51452). As to the kind of experiment: VHR1 phosphatase inhibitors, primary screen, biochemical, absorbance, uHTS (AID 1654).
Chain of Dual specificity protein phosphatase 3 (P51452 whole entry): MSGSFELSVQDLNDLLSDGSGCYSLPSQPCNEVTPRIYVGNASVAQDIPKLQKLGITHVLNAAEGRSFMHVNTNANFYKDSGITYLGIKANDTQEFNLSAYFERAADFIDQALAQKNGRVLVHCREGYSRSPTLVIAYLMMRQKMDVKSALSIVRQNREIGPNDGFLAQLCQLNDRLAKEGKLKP
Test [4] concerns Streptococcus sp. 'group A'. As to the kind of experiment: Streptococcus pyogenes SK(-)GAS viability under kanamycin – luminescence, BacTiterGlo, confirmation, counter-screen for streptokinase expression inhibitor project, dose response (AID 1900). Format: functional, organism-based.
Test [5] deals with T2, Long-chain-fatty-acid--AMP ligase FadD28 (Mycobacterium tuberculosis, UniProt P9WQ59).
T2 sequence (P9WQ59 whole entry): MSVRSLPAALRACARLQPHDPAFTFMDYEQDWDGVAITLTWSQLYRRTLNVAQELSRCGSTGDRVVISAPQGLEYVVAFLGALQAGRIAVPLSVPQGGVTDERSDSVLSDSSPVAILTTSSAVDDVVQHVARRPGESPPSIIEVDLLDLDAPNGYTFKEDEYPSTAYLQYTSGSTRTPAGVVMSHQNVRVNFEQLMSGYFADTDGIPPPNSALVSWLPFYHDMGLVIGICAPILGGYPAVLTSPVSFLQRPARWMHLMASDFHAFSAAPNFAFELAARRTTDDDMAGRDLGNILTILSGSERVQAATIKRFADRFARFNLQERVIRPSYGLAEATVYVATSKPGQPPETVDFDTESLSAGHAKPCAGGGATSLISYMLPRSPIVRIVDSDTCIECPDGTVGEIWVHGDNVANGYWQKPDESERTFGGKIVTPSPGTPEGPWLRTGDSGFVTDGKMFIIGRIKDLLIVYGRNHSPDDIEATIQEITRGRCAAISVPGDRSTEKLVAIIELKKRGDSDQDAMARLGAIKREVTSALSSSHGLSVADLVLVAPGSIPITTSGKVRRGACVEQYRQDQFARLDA
Put plainly: Fluorescence polarization aasay to screen for inhibitors that compete for the binding of FadD28 to a bisubstrate Measured in Biochemical System Using Plate Reader - 2147-01_Inhibitor_Dose_CherryPick_Activity. Format: functional, Mycobacterium tuberculosis H37Rv. (In fluorescence polarisation assays a small probe gives low polarisation when free and higher when bound to something large.)

The next test concerns Streptococcus. As to the kind of experiment: GAS UMAA2166 growth inhibition – luminescence, BacTiterGlo, counter-screen for streptokinase expression inhibitor project, dose response (AID 1915).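 Further: potency for reduction of bacterial viability or growth.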 Format: functional, organism-based. On the technique in general: The purpose of a counterscreen is to sort out artefacts and off-target activity.
The target in another test is T3, Protein Tat (Human immunodeficiency virus type 1 group M subtype B (isolate HXB2)(HIV-1), UniProt P04608).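 Further: tat binding to TAR RNA read out by fluorescence polarization.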
T3 sequence (P04608 whole entry): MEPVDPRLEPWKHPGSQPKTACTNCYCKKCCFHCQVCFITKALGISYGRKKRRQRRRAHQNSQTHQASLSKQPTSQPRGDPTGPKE
In kind it is functional.

Test [6] addresses Small ubiquitin-related modifier 1 (Homo sapiens, UniProt P63165). As to the kind of experiment: SUMO1 protein interaction blockers, potency – biochemical, fluorescence polarization, uHTS hits, dose response (AID 624382). In kind it is functional. The following applies: read-out: IC50_Mean.
Test [7] addresses T4, Tyrosine-protein phosphatase non-receptor type 5 (Homo sapiens, UniProt P54829).
T4 sequence (P54829 whole entry): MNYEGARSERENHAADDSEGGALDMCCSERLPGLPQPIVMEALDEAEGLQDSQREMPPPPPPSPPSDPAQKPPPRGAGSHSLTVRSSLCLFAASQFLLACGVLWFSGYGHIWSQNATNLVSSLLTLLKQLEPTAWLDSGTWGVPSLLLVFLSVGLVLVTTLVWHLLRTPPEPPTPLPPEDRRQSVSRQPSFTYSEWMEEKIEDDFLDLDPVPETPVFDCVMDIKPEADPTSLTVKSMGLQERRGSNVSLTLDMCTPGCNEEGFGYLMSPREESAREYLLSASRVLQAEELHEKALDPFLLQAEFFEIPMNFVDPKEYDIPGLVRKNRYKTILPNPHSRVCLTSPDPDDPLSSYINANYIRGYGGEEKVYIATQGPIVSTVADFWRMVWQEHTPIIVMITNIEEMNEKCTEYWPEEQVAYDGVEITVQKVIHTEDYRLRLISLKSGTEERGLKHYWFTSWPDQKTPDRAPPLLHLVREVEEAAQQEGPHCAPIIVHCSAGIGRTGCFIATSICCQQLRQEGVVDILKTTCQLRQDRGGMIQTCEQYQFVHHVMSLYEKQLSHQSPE
Put plainly: PTPN5 enzyme inhibition – biochemical, fluorescence intensity, uHTS hits, confirmation (AID 602372). Format: functional. The conditions noted are these: read-out: IC50_Mean.

The target of test [8] is Mothers against decapentaplegic homolog 3 (Homo sapiens, UniProt P84022). As to the kind of experiment: inhibitors of SMAD-driven TGF-beta signaling – dose response (AID 715). Format: functional.
Chain of Mothers against decapentaplegic homolog 3 (P84022 whole entry): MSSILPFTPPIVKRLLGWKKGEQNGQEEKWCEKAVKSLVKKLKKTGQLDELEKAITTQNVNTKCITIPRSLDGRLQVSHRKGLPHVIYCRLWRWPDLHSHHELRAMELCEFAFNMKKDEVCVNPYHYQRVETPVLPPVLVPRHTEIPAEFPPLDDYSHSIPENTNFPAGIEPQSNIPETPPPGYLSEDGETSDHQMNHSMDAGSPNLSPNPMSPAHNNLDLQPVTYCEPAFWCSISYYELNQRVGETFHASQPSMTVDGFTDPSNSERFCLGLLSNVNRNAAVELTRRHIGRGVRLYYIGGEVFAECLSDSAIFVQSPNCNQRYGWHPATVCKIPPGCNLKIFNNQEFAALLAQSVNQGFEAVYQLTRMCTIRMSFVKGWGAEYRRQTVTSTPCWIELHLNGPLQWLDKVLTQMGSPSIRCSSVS
The target in test [9] is Bifunctional protein GlmU (Mycobacterium tuberculosis, UniProt P9WMN3). As to the kind of experiment: Inhibitors of Mycobacterial Glucosamine-1-phosphate acetyl transferase (GlmU). Secondary screen. Set-up: species or system Mycobacterium tuberculosis H37Rv.
Chain of Bifunctional protein GlmU (P9WMN3 whole entry): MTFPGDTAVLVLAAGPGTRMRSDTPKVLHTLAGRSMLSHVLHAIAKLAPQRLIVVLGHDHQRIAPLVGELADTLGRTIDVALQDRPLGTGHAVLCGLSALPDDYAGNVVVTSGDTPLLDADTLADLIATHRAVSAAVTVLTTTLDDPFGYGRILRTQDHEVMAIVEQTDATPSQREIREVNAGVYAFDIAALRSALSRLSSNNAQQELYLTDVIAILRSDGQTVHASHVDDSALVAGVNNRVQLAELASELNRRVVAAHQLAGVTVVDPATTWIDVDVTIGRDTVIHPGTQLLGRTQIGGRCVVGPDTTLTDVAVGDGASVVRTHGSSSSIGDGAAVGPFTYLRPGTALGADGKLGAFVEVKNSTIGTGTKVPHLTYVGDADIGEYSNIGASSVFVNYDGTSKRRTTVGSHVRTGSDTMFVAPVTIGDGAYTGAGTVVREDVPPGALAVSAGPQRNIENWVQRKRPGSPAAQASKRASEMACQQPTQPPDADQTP

In ChEMBL document CHEMBL1201862, “PubChem BioAssay data set” (2004) one finds EC50, IC50 and AC50 data, which are given here for 8 molecules.

Molecules are shown by their SMILES. Active and inactive are the calls of the source. Where only a bound is given, the exact number is not on record here.

Chain of Small ubiquitin-related modifier 1 (P63165 whole entry): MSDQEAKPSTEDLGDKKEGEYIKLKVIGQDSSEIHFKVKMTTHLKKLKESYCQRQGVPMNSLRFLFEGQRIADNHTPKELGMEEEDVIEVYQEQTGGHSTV

On to `O=C1C(Cl)=C(NCCN2CCCCC2)C(=O)c2ccccc21`, for which the EC50 (usually the concentration that produces a half-maximal response) in test [1] was 0.798 µM (active).

Turning to `O=C(O)COc1ccc(/C=N/NC(=O)c2ccc(-c3csc(Nc4ccc(Cl)cc4)n3)cc2)cc1`, the IC50 in [2] was < 1.24 µM (active); in test [3] it was 2.52 µM (active).

With `CC(/C=C1\SC(=S)N(NS(=O)(=O)c2ccccc2)C1=O)=C\c1ccccc1`, the results for the EC50 (in test [4]; in the test on Streptococcus) were 1.94 µM (active) and > 150 µM (not active), respectively. Also, in test [5], the AC50 (usually the concentration at which the activity in the assay is half-maximal) was > 100 µM (inactive).

As to `CCN1/C(=C/c2ccc3cc(C)ccc3[n+]2CC)Sc2cc(C)c(C)cc21`, the EC50 in [4] is 8.22 µM (active); in test [1] it was 5.67 µM (active); in the test with Streptococcus, 8.85 µM (active).

As to `COc1cc(NCCCNC(C)C)c2nccc(C)c2c1`, the IC50 at Protein Tat is > 100 µM (active).

On to `CSc1ccc(C=NNc2ccc(S(=O)(=O)Nc3ccccc3C(=O)O)cc2[N+](=O)[O-])cc1`, for which the IC50 in test [6] was 3.23 µM (active); in [7], 4.12 µM (active).

On to `O=C1CCCC2=C1C1(O)C(=O)c3ccccc3C1(O)O2` (configuration not stated), for which, in [8], the IC50 was 2.73 µM (active).

As to `Nc1ccc2nc3c(O)nc(S)nc3nc2c1`, the IC50 in [9] is 14 µM (active); in [6], 5.69 µM (active); in test [2], 76.3 µM (active). Besides, the AC50 in test [5] is 46.1 µM (active).
